# Values of other authors, collected in PMC11901578, “Polymethoxyflavones and Bone Metabolism” (Nutrients, 2025).
# Where two headings read alike, the source gives them in different places.
# Columns and labels:
# [1] = system: human umbilical vein endothelial cells (HUVECs); design: method as in PMID 22707269; conditions: read-out: IC50, anti-proliferative effect on HUVECs; cited from earlier work
# DMM-OA mice = conditions: DMM-OA mice, oral 50 mg/kg/day for 8 weeks; cited from earlier work
# [2] = system: periodontal ligament cells; design: method as in PMID 38734708; conditions: 2.5, 5, and 10 μM; cited from earlier work
# [3] = system: rats with ligature-induced periodontitis; design: method as in PMID 38734708; conditions: oral 5, 10, and 20 mg/kg/day for 3 weeks; cited from earlier work
# [4] = system: BTB and CNC homology 1 (BACH1); design: method as in PMID 38734708; conditions: cited from earlier work
# HL-60 cells = system: HL-60 cells; design: method as in PMID 23225422; conditions: read-out: IC50, anti-proliferative effect on HL-60 cells; cited from earlier work
# zebrafish embryos = system: zebrafish embryos; design: method as in PMID 22707269; conditions: 30 μM, cited from earlier work
# [5] = system: osteoclast differentiation in co-cultures of osteoblasts and bone marrow cells; conditions: cited from earlier work; for IC50: IL-1 +, read-out: IC50, osteoclast differentiation in co-culture system; for inhibitory effect on IL-1-induced osteoclast differentiation relative to nobiletin and tangeretin, respectively: TRAP-positive osteoclasts
# [6] = system: osteoclast differentiation in co-culture system; conditions: LPS +, 30 μM; cited from earlier work
# Raw264.7 = conditions: RANKL +, cited from earlier work; for IC50: read-out: IC50, osteoclast differentiation in Raw264.7 cultures
# [7] = system: alveolar bone loss in mice; conditions: LPS +, cited from earlier work
# [8] = system: osteoclast differentiation; design: method as in PMID 22850615; conditions: 30 μM; cited from earlier work
# [9] = system: rheumatoid synovial fibroblasts (RASFs); design: method as in doi:10.3329/bjp.v10i3.22865; conditions: 50 and 100 μM; cited from earlier work
# CIA rats = system: CIA rats; design: method as in PMID 31344704; conditions: daily oral administration for 14 days; cited from earlier work
# [10] = system: osteoclast differentiation; design: method as in PMID 26044862; conditions: 20 μM, compared to 20 μM laricitrin and 20 μM myricetin; cited from earlier work
# [11] = system: bone marrow macrophage (BMM) cultures; conditions: 2, 10, and 50 μM; cited from earlier work
# [12] = system: human periodontal ligament cells (HPDLCs); conditions: TNF-α, human periodontal ligament cells; cited from earlier work
# [13] = system: bone resorption in mouse calvarial or alveolar bone organ cultures; conditions: 30 μM, mouse calvarial or alveolar bone organ cultures; cited from earlier work
# serum TNF-α levels = system: serum TNF-α levels; design: method as in PMID 18816060; conditions: rats, intraperitoneal 100 mg/kg; cited from earlier work
# [14] = system: IL-1β mRNA expression in the hippocampus; design: method as in PMID 25884208; conditions: mice, subcutaneous 100 mg/kg; cited from earlier work
smiles,measurement,setting,value
O=c1cc(-c2ccc(O)cc2)oc2cc(O)c(O)c(O)c12 [Scutellarein],IC50,[1],> 100 µM
COc1ccc(-c2cc(=O)c3c(OC)c(OC)c(OC)cc3o2)cc1 [Scutellarein tetra-methylether],IC50,[1],> 100 µM
"COc1ccc(-c2cc(=O)c3c(OC)c(OC)c(OC)cc3o2)cc1OC [Sinensetin, 3′,4′,5,6,7-Pentamethoxyflavone]",disease progression,DMM-OA mice,protects against disease progression
same,oxidative stress and inflammation,[2],dose-dependently reduced
same,alveolar bone resorption,[3],suppressed alveolar bone resorption
same,binding to BACH1,[4],directly binds
same,IC50,HL-60 cells,> 400 µM
same,IC50,[1],24 µM
same,"anti-angiogenic effect on zebrafish embryos, inhibited",zebrafish embryos; listed as sinensetin,approximately 95%
same,"anti-angiogenic effect on zebrafish embryos, inhibited",zebrafish embryos,95% inhibited [47]
"COc1ccc(-c2cc(=O)c3c(OC)c(OC)c(OC)c(OC)c3o2)cc1 [Tangeretin, 4′,5,6,7,8-Pentamethoxyflavone]",IC50,[5],18 µM
same,"osteoclast differentiation in co-culture system, inhibited",[6],94% inhibited [8]
same,"osteoclast differentiation in Raw264.7 cultures, inhibited",Raw264.7; 30 μM,71% inhibited [8]
same,IC50,Raw264.7,16 µM
same,"alveolar bone loss in mice, restored",[7]; 30 μg/mouse,0% restored [8]
same,"alveolar bone loss in mice, restored",[7]; 100 μg/mouse,2% restored [8]
same,"alveolar bone loss in mice, restored",[7]; 500 μg/mouse,4% restored [8]
same,"suppression of osteoclast differentiation induced by IL-1, LPS, or soluble RANKL (sRANKL)",[8],70–90%
same,proliferation of rheumatoid synovial fibroblasts (RASFs),[9],significantly inhibits
same,oxidative stress and inflammation,CIA rats,reduced oxidative stress and inflammation
same,IC50,HL-60 cells,32 µM
"COc1cc(-c2oc3cc(O)cc(O)c3c(=O)c2O)cc(OC)c1O [Syringetin, 3,4′,5,7-Tetrahydroxy-3′,5′-dimethoxyflavone]",inhibitory effect on M-CSF-/RANKL-induced osteoclast differentiation,[10],strongest inhibitory effect
"COc1cc(-c2cc(=O)c3c(O)c(OC)c(O)c(OC)c3o2)ccc1O [Sudachitin, 4′,5,7-Trihydroxy-3′,6,8-trimethoxyflavone]",RANKL-induced osteoclast differentiation,[11],dose-dependently suppressed
same,production of MMP-1 and MMP-3,[12],reduced the production
"COc1cc(-c2cc(=O)c3c(OC)c(OC)c(OC)c(OC)c3o2)ccc1O [4′-Demethylnobiletin, 4′-Hydroxy-3′,5,6,7,8-Pentamethoxyflavone]",IC50,[5],13 µM
same,"inhibitory effect on IL-1-induced osteoclast differentiation relative to nobiletin and tangeretin, respectively",[5],potent inhibitory effects
same,IC50,Raw264.7,1 µM
"COc1ccc([C@@H]2CC(=O)c3c(O)cc(O)cc3O2)cc1O [Hesperetin, reference compound]",IC50,[1],> 100 µM
same,"anti-angiogenic effect on zebrafish embryos, inhibited",zebrafish embryos; listed as hesperitin,~30%
same,"anti-angiogenic effect on zebrafish embryos, inhibited",zebrafish embryos,30% inhibited [47]
"COc1c(OC)c(OC)c2c(=O)cc(-c3ccc(O)cc3)oc2c1OC [4′-Demethyltangeretin, 4′-Hydroxy-5,6,7,8-Tetramethoxyflavone]",IC50,[5],18 µM
same,"inhibitory effect on IL-1-induced osteoclast differentiation relative to nobiletin and tangeretin, respectively",[5],potent inhibitory effects
same,IC50,Raw264.7,7 µM
"COc1ccc(-c2oc3c(OC)c(OC)c(OC)c(OC)c3c(=O)c2O)cc1OC [Natsudaidain, 3′,4′,5,6,7,8-Hexamethoxy-3-hydroxyflavone]",IC50,HL-60 cells,5 µM
"COc1ccc(-c2oc3c(OC)c(OC)c(OC)c(OC)c3c(=O)c2OC)cc1OC [Heptamethoxyflavone, 3,3′,4′,5,6,7,8,-Heptamethoxyflavone]",inhibition of LPS-induced bone resorption,[13],> 90%
same,serum TNF-α levels,serum TNF-α levels,reduced serum TNF-α levels
same,IL-1β mRNA expression in the hippocampus,[14],downregulates
same,IC50,HL-60 cells,63 µM
